This is an account of results in BindingDB's records for doi:10.1007/s10822-022-00478-x (Roche Innovation Center Basel, F. Hoffmann-La Roche Ltd., 2022).

The structures appear in SMILES notation.

The test concerns the target cAMP and cAMP-inhibited cGMP 3',5'-cyclic phosphodiesterase 10A (Homo sapiens, UniProt Q9Y233). Nature of the test: PDE10A assay. In a few lines: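 Scintillation proximity readout of [3H]cGMP hydrolysis (50 nM final substrate, 15 min) by 2 ng/well human PDE10A after 15 min compound preincubation at RT, pH 7.5 with MgCl2. Four-parameter logistic fit gave IC50, reported as pIC50.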

A word on the IC50: it is the concentration that gives 50% inhibition. Read a low IC50 as greater potency in that assay. With `O=C(NCCCN1CCCC1=O)c1nc(C2CC2)cnc1Nc1cncnc1` [Roche-Dataset for PDE10A, Compound 795], the IC50 was 1110 nM.

Turning to `O=C(NCC1CC1)c1cccc(NC(=O)c2nc(C3CC3)cnc2Nc2cncnc2)n1` [Roche-Dataset for PDE10A, Compound 880], the IC50 was 9.65 nM.

As to `Cc1ncc(C)n2nc(/C=C/c3nc(-c4cccn4C)nn3C)nc12` [Roche-Dataset for PDE10A, Compound 440], the IC50 was determined as 12 nM.

As for `Cn1ncc(C(=O)N2CCC2)c1C(=O)Nc1ccnn1-c1ccccn1` [Roche-Dataset for PDE10A, Compound 1024], half-maximal inhibition (IC50) required 130 nM.

In the case of `CCN(C)C(=O)c1cnn(C)c1C(=O)N[C@@H]1CCn2cc(-c3cccc(OC)c3)nc2C1` [Roche-Dataset for PDE10A, Compound 136], the IC50 was determined as 1730 nM.

Consider `Cc1c(Cl)cc(OC(F)F)c2nc(CCc3nc(N4CCCC4)n(C)n3)nn12` [Roche-Dataset for PDE10A, Compound 206], for which inhibition was half-maximal at 0.54 nM (IC50).

The molecule `Cn1ncc(C(=O)N2CCC2)c1C(=O)Nc1ccc2nc(N3CCCC3)nn2c1` [Roche-Dataset for PDE10A, Compound 469] had an IC50 of 0.48 nM.

Regarding `O=C(Nc1cc(-c2ccccn2)nn1CCO)c1nc(C2CC2)ccc1Nc1cncnc1` [US8470820, 10], the midpoint of inhibition, the IC50, lay at 2.25 nM.

Consider `Cn1ncc(-c2ccccc2)c1C(=O)Nc1ccn2nc(-c3ccccc3)nc2c1` [Roche-Dataset for PDE10A, Compound 172], for which the half-maximal inhibitory concentration (IC50) came to 131 nM.

Turning to `Cn1ncc(C(=O)N2CCC2)c1C(=O)Nc1cn(-c2cccc(C(F)(F)F)n2)cn1` [Roche-Dataset for PDE10A, Compound 802], half-maximal inhibition (IC50) required 3190 nM.

For the molecule `CCOC(=O)c1cnn(C)c1C(=O)Nc1ccn2nc(-c3cccnc3F)nc2c1` [Roche-Dataset for PDE10A, Compound 264], the IC50 was found to be 183 nM.

Regarding `CNC(=O)[C@@H]1CCC[C@H]1NC(=O)c1nc(C2CC2)cnc1Nc1cncnc1` [Roche-Dataset for PDE10A, Compound 971], the IC50 was determined as 1140 nM.

The molecule `Cn1cc(S(C)(=O)=O)c(C(=O)Nc2ccc3cc(-c4ccccc4)nn3c2)n1` [Roche-Dataset for PDE10A, Compound 416] displayed an IC50 of 88 nM.

`O=C(Nc1cc(-c2cccc(Cl)n2)nn1CCO)c1nc(C2CC2)ccc1Nc1cncnc1` [US8470820, 24] showed an IC50 of 1.41 nM.

Molecule `O=C(Nc1ccn(CCC(F)(F)F)n1)c1nc(C2CC2)ccc1Nc1cncnc1` [Roche-Dataset for PDE10A, Compound 498] showed an IC50 of 9.67 nM.

In turn, `O=C(Nc1cc(-c2ccccn2)nn1CC1CCCC1)c1nc(C2CC2)ccc1Nc1cncnc1` [US8470820, 31] returned an IC50 of 1.12 nM.

In turn, `O=C(Nc1ccn([C@]23C[C@H]4C[C@H](C[C@H](C4)C2)C3)n1)c1nc(C2CC2)ccc1Nc1cncnc1` [Roche-Dataset for PDE10A, Compound 537] displayed an IC50 of 12 nM.

On to `O=C(Nc1cccc(N2CCCCC2=O)c1)c1nc(C2CC2)cnc1Nc1cncnc1` [Roche-Dataset for PDE10A, Compound 724], for which the midpoint of inhibition, the IC50, lay at 46 nM.

In the case of `Cn1nc(-c2ccccn2)cc1NC(=O)c1cccc2c1OCCO2` [Roche-Dataset for PDE10A, Compound 655], half-maximal inhibition (IC50) required 10000 nM.

Consider `Cc1c(C#N)nc2ccc(C#Cc3nc(-c4ccccc4)cn3C)nn12` [Roche-Dataset for PDE10A, Compound 79], for which the IC50 is 1.27 nM.

Regarding `O=C(Nc1cn(Cc2ccccn2)cn1)c1nc(C2CC2)ccc1Nc1cncnc1` [Roche-Dataset for PDE10A, Compound 1036], the IC50 stood at 110 nM.

Turning to `Cn1nc(-c2ccccn2)cc1NC(=O)c1nc(C2CC2)ccc1Nc1cncnc1` [US8470820, 8], 3.23 nM corresponded to half-maximal inhibition (IC50).

As to `O=C(Nc1ccc2cc(-c3ccccc3)nn2c1)c1onc2ccc(Br)cc12` [Roche-Dataset for PDE10A, Compound 523], the IC50 amounted to 10 nM.

`Cn1cc(-c2ccccc2)nc1COc1cnc2cc(Cl)ccc2n1` [Roche-Dataset for PDE10A, Compound 598] displayed an IC50 of 9.77 nM.

`Cn1ncc(C(=O)N2CCC2)c1C(=O)Nc1cc(C2CCC2)n(C2CCCC2)n1` [Roche-Dataset for PDE10A, Compound 1088] displayed a half-inhibitory concentration (IC50) of 853 nM.

Take `CCc1nc(C)c(C(=O)Nc2cc3nc(-c4ccccc4)[nH]c3cc2C(=O)O)o1` [Roche-Dataset for PDE10A, Compound 424]: the concentration for half-maximal inhibition (IC50) turned out to be 1340 nM.

Regarding `O=C(Nc1ccncc1C(F)(F)F)c1ccc2cc(-c3ccccc3)nn2c1` [Roche-Dataset for PDE10A, Compound 367], half-maximal inhibition (IC50) required 1070 nM.

The molecule `O=C(Nc1ccn2nc(-c3ccccc3)nc2c1)c1onc2ccccc12` [Roche-Dataset for PDE10A, Compound 420] registered a half-maximal inhibitory concentration (IC50) of 194 nM.

In the case of `Cn1ncc(C(=O)N2CCC2)c1C(=O)Nc1cc(C2CCCCC2)n[nH]1` [Roche-Dataset for PDE10A, Compound 991], half-maximal inhibition (IC50) was put at 9440 nM.

The molecule `Cc1ncn(-c2ccccc2)c1C(=O)Nc1cc(-c2ccccn2)nn1C` [Roche-Dataset for PDE10A, Compound 994] showed an IC50 of 2150 nM.

In turn, `O=C(Nc1ccn(C2CCC2)n1)c1nc(C2CC2)ccc1Nc1cncnc1` [Roche-Dataset for PDE10A, Compound 695] showed an IC50 of 21 nM.

`O=C(NCCc1ccc(C(F)(F)F)cc1)c1nc(C2CC2)cnc1Nc1cncnc1` [Roche-Dataset for PDE10A, Compound 383] gave an IC50 of 250 nM.

Regarding `Cn1nc(-c2ccc3ccccc3n2)cc1NC(=O)c1nc(C2CC2)ccc1Nc1cncnc1` [US8470820, 40], the IC50 amounted to 0.08 nM.

`CN(C)C(=O)c1nn(C)cc1C(=O)Nc1ccn2cc(-c3ccccc3)nc2n1` [Roche-Dataset for PDE10A, Compound 409] came in with an IC50 of 63 nM.

In turn, `O=C(Nc1ccn(CC(F)(F)F)n1)c1nc(C2CC2)ccc1Nc1cncnc1` [Roche-Dataset for PDE10A, Compound 603] gave a half-maximal inhibitory concentration (IC50) of 6.39 nM.

`COc1ncccc1C(=O)Nc1cc(-c2ccccn2)nn1C` [Roche-Dataset for PDE10A, Compound 921] yielded an IC50 of 9730 nM.

Regarding `CC(=O)c1nn(C)cc1NC(=O)c1nc(C2CC2)cnc1Nc1cncnc1` [Roche-Dataset for PDE10A, Compound 1016], the IC50 came out at 49 nM.

Consider `COCc1ccc(Nc2cncnc2)c(C(=O)Nc2cc(-c3ccccn3)nn2C)n1` [US8470820, 59], for which the midpoint of inhibition, the IC50, lay at 6.57 nM.

With `Cn1ncc(C(=O)N2CCC2)c1C(=O)Nc1ccc2sc(N3CCOCC3)nc2c1` [Roche-Dataset for PDE10A, Compound 397], it took 1.86 nM to reach half-maximal inhibition (IC50).

Consider `Cn1ncc(C(=O)N2CCC2)c1C(=O)Nc1cc(-c2ccccc2Cl)nn1C1CCCC1` [Roche-Dataset for PDE10A, Compound 438], for which the 50% inhibitory concentration (IC50) is 879 nM.

As for `COC(=O)c1cc(Cl)c(C)n2nc(CCc3nc(N4CCCC4)nn3C)nc12` [Roche-Dataset for PDE10A, Compound 325], the IC50 came to 432 nM.

For `Cc1ncc(C)n2nc(/C=C/c3nc(N4CC[C@@H](C)C4)nn3C)nc12` [Roche-Dataset for PDE10A, Compound 560], the IC50 was 24 nM.

Regarding `COCCn1ncc(NC(=O)c2nc(C3CC3)ccc2Nc2cncnc2)c1C(=O)N(C)C` [Roche-Dataset for PDE10A, Compound 944], the half-inhibitory concentration (IC50) came out at 13 nM.

Molecule `CC(C)Oc1cc(C(=O)Nc2ccn3nc(-c4ccccc4)nc3c2)cc(Cl)n1` [Roche-Dataset for PDE10A, Compound 116] returned an IC50 of 65 nM.
